Read-outs that look alike come from different tables or passages of the source.
Tests used:
[1] = system: poly(ADP-ribosyl)transferases and SIR2 enzymes; details: poly(ADP-ribosyl)transferases and SIR2 enzymes exhibit similar values; read-out: Km values for NAD^+; cited from earlier work
HST2 [2] = molecular target: T1, HST2 (Saccharomyces cerevisiae, UniProt P53686); experiment: HST2 steady-state deacetylation reactions, substrate saturation curves (HPLC); type: biochemical, yeast
Text: Materials. [^3H]Acetyl-CoA (1.88 Ci/mmol) and Na-[^3H]-acetate (100,000 cpm/nmol) was from NEN Life Sciences Products. Nicotinamide, ADP-ribose, and nicotinamide adenine dinucleotide (NAD) were purchased from Sigma Chemical Company. Histone H3 peptide, […] and the Lysine 14 acetylated H3 peptide (AcLys-14), corresponding to the 20 amino-terminal residues of human histone H3 was synthesized by the Protein Chemistry Core Lab at Baylor College of Medicine. Histidine tagged full length HST2 was recombinantly expressed and purified from Escherichia coli BL21DE3 bacteria using a T7 polymerase-based expression. […] HST2 eluted at 200 mM imidazole and was determined to be >95% pure by scanning densitometry of commassie-stained SDS-PAGE. […] The peaks of absorbance at 214/260 nm were collected and subjected to mass spectral analysis. [^3H]-acetate was detected by liquid scintillation counting. […]
Typical HST2 steady-state reactions to monitor deacetylation of AcLys-14 H3 peptide or nicotinamide formation were carried out at 37° C. in 50 mM Tris, pH 7.5 buffer. Rates of product formation were determined at various concentrations of AcLys-14 H3 peptide (5-300 μM) and NAD^+ (5-600 μM). During the linear portion of the initial velocity, the reactions were quenched with TFA to 1% and product formation was monitored by the HPLC analysis described above. […]

SIR2 family of enzymes = molecular target: T2, SIR2 family of enzymes (Saccharomyces cerevisiae, UniProt P53686); experiment: HST2 steady-state reactions with NGD as alternative substrate to NAD; type: biochemical
T2 construct: Histidine tagged full length HST2 was recombinantly expressed and purified from Escherichia coli BL21DE3 bacteria; Histidine tag; made in house; host or cells: Escherichia coli BL21DE3
Text: The details of the reaction conditions are as described in the materials and methods section. This enzymatic process may be used to advantage to generate novel O-acetyl-nucleotide analogs. These analogs may be used in the development of inhibitors for SIR2 and SIR homologs, or for the proteins/enzymes that normally bind/utilize O-acetyl-ADP ribose. More importantly, these enzyme-derived nucleotide analogs may serve as potent therapeutics for cancer and aging, releasing the block for transcriptionally-silenced genes that have been inappropriately silenced during tumorigenesis and aging, as discussed earlier.
Typical HST2 steady-state reactions to monitor deacetylation of AcLys-14 H3 peptide or nicotinamide formation with nicotinamide guanine dinucleotide (NGD) as an alternative substrate to NAD were carried out at various concentrations of AcLys-14 H3 peptide (5-100 μM) and NGD (10-400 μM). During the linear portion of the initial velocity, the reactions were monitored by reverse phase HPLC analysis on a Beckman Ultrasphere column (4.6 mm×15 cm). Samples were injected in 0.05% trifluoroacetic acid (TFA)/H2O for 1 min before a linear gradient of 0-40% acetontrile in 1-41 min.

HST2 [3] = molecular target: T1, HST2; experiment: Rapid-reaction single turnover quench-flow analysis; type: biochemical, yeast; details: HST2, excess NAD^+, sub-stoichiometric [^3H]-AcLys14 H3, 22±3° C., pH 7.5, single exponential fit
Text: FIGS. 5A-5C are a series of graphs showing that acetate is not a primary product of HST2-catalyzed histone/protein deacetylation. H3 peptide was stoichiometrically acetylated on Lys-14 by the histone acetyltransferase P/CAF and using [^3H]-AcCoA. Monoacetylated [^3H]-AcLys-14 H3 peptide was then purified by HPLC (FIG. 5A) and utilized as a substrate in the HST2 deacetylation reactions (FIG. 5B). Upon complete consumption of [^3H]-AcLys-14 H3 by HST2, all of the original [^3H] from H3 peptide was converted to a labeled product that eluted much later than authentic acetate. Conditions: 375 nM HST2, 175 μM NAD^+, 5 μM [^3H]-Lys14 AcH3, 1 mM DTT, for 1 min at 37° C. prior to quenching with TFA to a final concentration of 1%. FIG. 5C: Single turnover rapid quench-flow analysis. […] Quantification of [^3H]-AcLys14 H3 peptide (diamonds) and the [^3H]-acetate-adduct (circles) was accomplished by liquid scintillation counting of these species separated using reverse phase HPLC. […]
P/CAF [^3H]-monoacetylation of H3 peptide. […] Every mass spectrum was recorded as the sum of 20 consecutive spectra, each produced by a single pulse of photons. […] The amount of [^3H]-AcLys14 H3 peptide and [^3H]-O-acetyl ADP ribose was determined by liquid scintillation counting of these species separated on reverse phase HPLC. […]

T1 sequence (P53686 whole entry): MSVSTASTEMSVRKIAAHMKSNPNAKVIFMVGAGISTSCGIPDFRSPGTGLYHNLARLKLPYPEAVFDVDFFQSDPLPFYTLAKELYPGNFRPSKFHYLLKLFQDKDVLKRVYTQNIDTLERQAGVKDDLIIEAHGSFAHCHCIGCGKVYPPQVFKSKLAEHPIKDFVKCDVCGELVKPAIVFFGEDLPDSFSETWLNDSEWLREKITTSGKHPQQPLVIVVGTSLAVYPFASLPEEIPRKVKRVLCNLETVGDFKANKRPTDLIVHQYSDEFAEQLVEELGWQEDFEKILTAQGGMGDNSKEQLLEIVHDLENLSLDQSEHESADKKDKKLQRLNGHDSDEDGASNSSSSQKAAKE
T2 sequence (P53686 whole entry): as above

NC(=O)c1ccc[n+]([C@@H]2O[C@H](COP(=O)([O-])OP(=O)(O)OC[C@H]3O[C@@H](n4cnc5c(N)ncnc54)[C@H](O)[C@@H]3O)[C@@H](O)[C@H]2O)c1 [NAD^+, nicotinamide adenine dinucleotide]
Km [1]: 50 to 70 µM
Km (HST2 [2]; 37° C., 50 mM Tris pH 7.5, read-out: Km for NAD^+): 70 µM

NC(=O)c1ccc[n+]([C@@H]2O[C@H](COP(=O)([O-])OP(=O)(O)OC[C@H]3O[C@@H](n4cnc5c(=O)[nH]c(N)nc54)[C@H](O)[C@@H]3O)[C@@H](O)[C@H]2O)c1 [NGD, nicotinamide guanine dinucleotide]
ability to serve as substrate, generating O-acetyl-NDP ribose product (SIR2 family of enzymes): can serve as substrates for the SIR2 family of enzymes

ARTKQTARKSTGG(AcK)APRKQL [AcLys-14 H3, reference compound]
rate constant of AcLys-14 H3 peptide deacetylation (substrate consumption) (HST2 [3]): 2.0 ± 0.1 s⁻¹
Km (HST2 [2]; estimated, read-out: Km for AcLys-14 H3): < 0.5 µM
